Experiment in all cases: NCI-60 cell line screen, 48 h
In assay [1] the test system is OVCAR-3 ovarian.
Assay [2] deals with MALME-3M melanoma.
Assay [3] concerns CCRF-CEM leukemia.
Assay [4] relates to K-562 leukemia.
Assay [5] relates to UACC-62 melanoma.
Assay [6] concerns OVCAR-4 ovarian.
For assay [7], the system named is RPMI-8226 leukemia.
For assay [8], the system named is NCI/ADR-RES ovarian.
Assay [9] has as its system SN12C renal.
The subject of assay [10] is MDA-MB-435.
Assay [11] has as its system SNB-75 CNS.
Assay [12] concerns TK-10 renal.
Assay [13] relates to MOLT-4 leukemia.
The test system of assay [14] is RXF 393 renal.
Assay [15] deals with SK-MEL-2 melanoma.
Assay [16] relates to HOP-92 NSCLC.
Assay [17] relates to NCI-H460 lung.
The subject of assay [18] is T-47D breast.
In assay [19] the test system is MCF7 breast.
The subject of assay [20] is NCI-H226 lung.

The structures appear in SMILES notation.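 Five concentrations, 48 hours, 96-well plates. At the TGI there is no net growth.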

On to `O=C1C2=Cc3ccccc3OC2(O)Oc2cc3ccccc3cc21` (stereo not given), for which the TGI in [1], in assay [2], in assay [3], in assay [4], in assay [5] and in [6] was greater than 100 µM throughout. Further, the TGI is greater than 100 µM in assay [7]; greater than 100 µM in assay [8]; greater than 100 µM in assay [9]; greater than 100 µM in assay [10]; 73.2 µM in assay [11]; greater than 100 µM in assay [12]. Also, the TGI in assay [13], in assay [14], in assay [15], in assay [16], in [17] and in assay [18] was greater than 100 µM in each case. Moreover, the TGI in assay [19] and in assay [20] was greater than 100 µM in each case.

With `CS(=O)(=O)C(C#N)c1nc2ccccc2nc1Cl` (stereo not given), the TGI in assay [1], in [2], in [3], in assay [4], in [5] and in assay [6] was greater than 100 µM in each case. The TGI in assay [7] is greater than 100 µM; in assay [8] it was greater than 100 µM; in assay [9], greater than 100 µM; in assay [10], greater than 100 µM; in assay [11] it was greater than 100 µM; in [12], greater than 66.5 µM. Besides, the TGI in [13], in assay [14], in assay [15], in assay [16], in assay [17] and in assay [18] was greater than 100 µM each time. Besides, the TGI in assay [19] and in assay [20] was greater than 100 µM throughout.

Take `CC(=O)OCC1OC(N2C(C)=C(C(C)=O)C(c3ccc(Cl)cc3)C(C#N)=C2S)C(OC(C)=O)C(OC(C)=O)C1OC(C)=O` (stereo not given): the TGI in [1] is greater than 100 µM; in [2], greater than 100 µM; in assay [3], greater than 100 µM; in assay [4] it was greater than 100 µM; in assay [5], 60.6 µM; in assay [6], greater than 100 µM. The TGI in [7], in [8], in assay [9], in assay [10], in [11] and in [12] was greater than 100 µM each time. The TGI in assay [13] is 82.2 µM; in assay [14], greater than 100 µM; in [15], greater than 100 µM; in assay [16], greater than 100 µM; in assay [17] it was greater than 100 µM; in assay [18], greater than 100 µM. Further, the TGI in assay [19] and in assay [20] was greater than 100 µM in each case.

Regarding `CS(=O)(=O)Nc1ccc2ccccc2c1-c1c(NS(C)(=O)=O)ccc2ccccc12`, the TGI in assay [1], in assay [2], in assay [3], in [4], in assay [5] and in assay [6] was greater than 25 µM throughout. The TGI in assay [7], in assay [8], in assay [9], in assay [10], in assay [11] and in assay [12] was greater than 25 µM in each case. For the same molecule, the TGI in assay [13], in assay [14], in assay [15], in assay [16], in [17] and in assay [18] was greater than 25 µM each time. The TGI in assay [19] and in assay [20] was greater than 25 µM throughout.

With `O=c1[nH]c2cc(C(F)(F)F)ccc2nc1C(F)(F)F`, the TGI in [1] is 58 µM; in assay [2], greater than 100 µM; in assay [3], greater than 100 µM; in assay [4], greater than 100 µM; in assay [5], greater than 100 µM; in [6], greater than 100 µM. Moreover, the TGI is greater than 100 µM in assay [7]; greater than 100 µM in assay [8]; greater than 100 µM in [9]; 85.2 µM in assay [10]; 93.6 µM in assay [11]; greater than 100 µM in [12]. Also, the TGI in [13] was greater than 100 µM; in [14], 58.2 µM; in assay [15] it was 79.3 µM; in [16] it was 45.2 µM; in [17] it was greater than 100 µM; in [18], greater than 100 µM. Further, the TGI in [19] and in assay [20] was greater than 100 µM in each case.

Turning to `Cc1ccc(C(=O)O)c(/C=C2\Cc3ccc(C)cc3C2=O)c1`, the TGI in [1], in [2], in assay [3], in assay [4], in assay [5] and in [6] was greater than 100 µM each time. Besides, the TGI in assay [7] is 53.3 µM; in assay [8] it was greater than 100 µM; in [9], greater than 100 µM; in [10], greater than 100 µM; in assay [11], greater than 100 µM; in assay [12] it was greater than 100 µM. For the same molecule, the TGI in assay [13], in assay [14], in [15], in [16], in [17] and in [18] was greater than 100 µM throughout. For the same molecule, the TGI was greater than 100 µM in assay [19] and 85.2 µM in [20].

Regarding `Cc1cc(C)nc(NS(=O)(=O)c2ccc(Nc3c4ccccc4nc4ccc(C(=O)Nc5ccc(S(N)(=O)=O)cc5)cc34)cc2)n1`, the TGI in [1], in assay [2], in assay [3], in [4], in [5] and in [6] was greater than 100 µM each time. Also, the TGI in [7], in assay [8], in [9], in assay [10], in assay [11] and in assay [12] was greater than 100 µM throughout. Further, the TGI in assay [13], in assay [14], in [15], in [16], in [17] and in assay [18] was greater than 100 µM throughout. Moreover, the TGI in assay [19] and in assay [20] was greater than 100 µM each time.

Consider `Cc1c(N2C(=O)C(Cl)C2/C=C/c2ccccc2)c(=O)n(-c2ccccc2)n1C` (stereo not given), for which the TGI in [1] is greater than 100 µM; in [2], 25 µM; in [3] it was 48.1 µM; in assay [4] it was 51.1 µM; in assay [5], 31.2 µM; in assay [6] it was 84.6 µM. Also, the TGI in [7] was 34.7 µM; in [8] it was greater than 100 µM; in assay [9] it was 47 µM; in assay [10] it was 28.1 µM; in assay [11], 87.3 µM; in assay [12], 37.4 µM. The TGI in [13] is 50 µM; in assay [14] it was 79.3 µM; in assay [15] it was 40.6 µM; in assay [16], 50.2 µM; in [17], greater than 100 µM; in assay [18], greater than 100 µM. Moreover, the TGI worked out at 87.5 µM in assay [19] and 61.6 µM in assay [20].

Values taken from PubChem BioAssay (NCI).
